In ChEMBL document CHEMBL1130628, “Synthesis and antiproliferative activity of a cyclic analog of dolastatin 10” (Bioorg Med Chem Lett, 1998):

Tests used:
[1] = system: HT-29; test: Compound was evaluated for antiproliferative activity against human colon adenocarcinoma (HT-29) cell lines.; format: functional, cell-based
[2] = biological target: T1, Tubulin alpha chain (Sus scrofa, UniProt P02550); test: Compound was tested in vitro for inhibition of tubulin polymerization; format: functional
[3] = system: L1210; test: Compound was evaluated for antiproliferative activity against murine leukemia (L1210) cell lines; format: functional, cell-based; details: Mus musculus
[4] = biological target: T1, Tubulin alpha chain; test: Compound was tested in vitro for inhibition of tubulin polymerization.; format: functional
[5] = system: L1210; test: Compound was evaluated for antiproliferative activity against murine leukemia (L1210) cell lines.; format: functional, cell-based; details: Mus musculus

T1 sequence (P02550 whole entry, looked up): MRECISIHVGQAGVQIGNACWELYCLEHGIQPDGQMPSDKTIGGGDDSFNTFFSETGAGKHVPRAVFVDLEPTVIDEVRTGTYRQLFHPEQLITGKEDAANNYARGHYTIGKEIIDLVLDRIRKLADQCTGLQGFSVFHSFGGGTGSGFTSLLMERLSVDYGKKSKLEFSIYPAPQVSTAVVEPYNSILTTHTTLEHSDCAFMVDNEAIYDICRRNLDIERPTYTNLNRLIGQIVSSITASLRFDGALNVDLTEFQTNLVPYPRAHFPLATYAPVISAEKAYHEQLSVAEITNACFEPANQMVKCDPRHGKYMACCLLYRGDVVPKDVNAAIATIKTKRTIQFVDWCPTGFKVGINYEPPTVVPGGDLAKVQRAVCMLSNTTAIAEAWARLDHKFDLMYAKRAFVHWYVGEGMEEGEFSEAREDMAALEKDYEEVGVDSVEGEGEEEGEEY

IC50 [2]	IC50 [3]	Structure (SMILES)	IC50 [1]	IC50 [4]	IC50 [5]
39000 nM	111 nM	CC[C@H](C)[C@H]1[C@H](OC)CC(=O)N2CCC[C@H]2[C@H](OC)[C@H](C)C(=O)N[C@@H](Cc2ccccc2)c2nc(cs2)C(=O)O[C@H](C)[C@H](N(C)C)C(=O)N[C@@H](C(C)C)C(=O)N1C	58.5 nM		
		CC[C@H](C)[C@@H]([C@@H](CC(=O)N1CCC[C@H]1[C@H](OC)C(C)C(=O)NC(Cc1ccccc1)c1nccs1)OC)N(C)C(=O)[C@@H](NC(=O)[C@H](C(C)C)N(C)C)C(C)C (single isomer, unassigned) [DOLASTATIN-10]	0.06 nM	2200 nM	0.03 nM
